# Measurements taken from ChEMBL document CHEMBL1138376, “Identification of a series of highly potent activators of the Nurr1 signaling pathway” (Bioorg Med Chem Lett, 2007).
# Assays:
# [1] = target: T1, Nuclear receptor subfamily 4 group A member 2 (Homo sapiens, UniProt P43354); test: Activation of Nurr1 expressed in MN9D cells by luciferase reporter gene assay; assay type: cell-based
# [2] = target: T1, Nuclear receptor subfamily 4 group A member 2; test: Activation of Nurr1 expressed in MN9D cells by luciferase reporter gene assay relative to control; assay type: cell-based; design: concentration or dose not given beside the values
# [3] = Bioavailability in mouse at 10 umol/kg, po; assay type: ADME, organism-based; details: in vivo
# T1 sequence (P43354 whole entry): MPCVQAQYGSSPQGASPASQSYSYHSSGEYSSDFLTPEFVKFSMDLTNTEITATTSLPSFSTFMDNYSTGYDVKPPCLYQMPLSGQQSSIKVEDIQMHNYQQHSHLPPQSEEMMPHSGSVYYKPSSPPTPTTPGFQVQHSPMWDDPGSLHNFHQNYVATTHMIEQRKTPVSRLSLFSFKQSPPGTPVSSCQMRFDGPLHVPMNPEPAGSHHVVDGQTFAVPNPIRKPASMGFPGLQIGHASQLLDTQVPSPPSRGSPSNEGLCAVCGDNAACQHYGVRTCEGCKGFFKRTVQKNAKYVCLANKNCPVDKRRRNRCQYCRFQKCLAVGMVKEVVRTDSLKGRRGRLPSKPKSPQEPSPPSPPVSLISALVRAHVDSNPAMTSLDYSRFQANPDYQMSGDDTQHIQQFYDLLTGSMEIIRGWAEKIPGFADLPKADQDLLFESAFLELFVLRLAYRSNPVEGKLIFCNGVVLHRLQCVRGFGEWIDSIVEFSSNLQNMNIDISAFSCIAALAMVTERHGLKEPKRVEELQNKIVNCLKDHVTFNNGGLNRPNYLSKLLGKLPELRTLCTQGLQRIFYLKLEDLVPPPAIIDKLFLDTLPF
EC50 [1] [nM],Activity [2] [%],bioavailability [3] [%],SMILES
26,171,,CN(C)Cc1ccc(-c2cc3onc(-c4ccccc4)c3c(=O)n2C)cc1
> 2000,,,Cn1c(-c2ccc(Oc3ccccc3)cc2)cc2onc(-c3ccccc3)c2c1=O
3.5,226,,Cn1c(-c2ccc(COCCO)cc2)cc2onc(-c3ccccc3)c2c1=O
130,198,,Cn1c(-c2ccncc2)cc2onc(-c3ccccc3)c2c1=O
113,173,,CC(C)OCCOCc1ccc(-c2cc3onc(-c4ccccc4)c3c(=O)n2C)cc1
3.9,208,95,COCCOCc1ccc(-c2cc3onc(-c4ccccc4)c3c(=O)n2C)cc1
0.8,202,,Cn1c(-c2ccc3c(c2)OCO3)cc2onc(-c3ccccc3)c2c1=O
4.1,185,,COc1ccc(-c2cc3onc(-c4ccccc4)c3c(=O)n2C)cc1
> 2000,,,Cc1cc2onc(-c3ccccc3)c2c(=O)n1C
77.5,207,,O=c1[nH]c(-c2ccccc2)cc2onc(-c3ccccc3)c12 [ISOXAZOLOPYRIDINONE]
59.2,202,,COc1ccc(-c2cc3onc(-c4ccccc4)c3c(=O)n2C)c(OC)c1
31.9,163,,CN1CCN(Cc2ccc(-c3cc4onc(-c5ccccc5)c4c(=O)n3C)cc2)CC1
